Experimental data taken from patent US20150152395A1, “CHIMERIC LUCIFERASES” (Connecticut College, priority 2012, published 2015).

How the values were obtained:
Test in all cases: Steady-state kinetic constants, bioluminescence activity
[1] = molecular target: T1, Photinus pyralis luciferase variant Ppy GR-TS (Photinus pyralis, UniProt P08659, A215L/E354K/F250S/F295L/G246A/I232A/T214A/V241I); type: biochemical
T1 construct: N-terminal GPLGS; pGEX-6P-2 GST fusion (tag cleaved), E. coli BL21
Protocol: (§1) Reactions were initiated by injection of solutions of the substrate being maintained at saturating concentration. Kinetic constants were determined using a nonlinear least squares method of the Enzyme Kinetics Pro software (SynTex), which fits data from the Michalis-Menten equation to a rectangular hyperbola. The corresponding kcat values were obtained by dividing the Vmax values by the amount (μmol) of each luciferase in the assay mixtures.

[2] = molecular target: LitWT, recombinant Luciola italica luciferase containing Lys547Gly/Met548Gly, SEQ ID NO: 6, with N-terminal peptide GPLGS (Luciola italica, UniProt Q1AG35, K547G/M548G); conditions: kcat divided by Mg-ATP Km
Chain of LitWT, recombinant Luciola italica luciferase containing Lys547Gly/Met548Gly, SEQ ID NO: 6, with N-terminal peptide GPLGS (Q1AG35 1-548 K547G/M548G): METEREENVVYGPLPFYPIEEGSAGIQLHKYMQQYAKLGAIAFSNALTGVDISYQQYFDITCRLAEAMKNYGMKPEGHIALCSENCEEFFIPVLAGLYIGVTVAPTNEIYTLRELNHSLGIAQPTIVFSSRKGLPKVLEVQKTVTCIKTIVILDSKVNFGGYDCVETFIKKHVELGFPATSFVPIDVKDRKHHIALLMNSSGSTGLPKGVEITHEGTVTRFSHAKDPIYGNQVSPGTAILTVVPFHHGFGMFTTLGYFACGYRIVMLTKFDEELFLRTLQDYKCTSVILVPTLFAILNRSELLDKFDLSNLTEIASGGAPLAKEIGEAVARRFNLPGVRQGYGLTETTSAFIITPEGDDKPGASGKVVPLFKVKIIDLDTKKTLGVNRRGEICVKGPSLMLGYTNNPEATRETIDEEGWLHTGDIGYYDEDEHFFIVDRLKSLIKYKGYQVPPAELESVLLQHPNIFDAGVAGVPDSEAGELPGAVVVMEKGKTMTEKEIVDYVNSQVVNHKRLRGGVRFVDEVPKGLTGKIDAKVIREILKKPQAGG
Protocol: as §1

[3] = molecular target: T2, Photinus pyralis luciferase variant Ppy WT-TS5/I351V, PpyWT-TS (SEQ ID NO: 22) with Ile457Val/Ala482Gly/His489Lys/Ala503Asn/Lys543Gln/Ile351Val, SEQ ID NO: 12 (Photinus pyralis, UniProt P08659, A215L/A482G/A503N/E354K/F295L/H489K/I232A/I351V/I457V/K543Q/T214A); type: biochemical
T2 construct: N-terminal GPLGS; pGEX-6P-2 GST fusion (tag cleaved), E. coli BL21
T2 sequence (P08659 whole entry T214A/A215L/I232A/F295L/I351V/E354K/I457V/A482G/H489K/A503N/K543Q, the tested form may be a part): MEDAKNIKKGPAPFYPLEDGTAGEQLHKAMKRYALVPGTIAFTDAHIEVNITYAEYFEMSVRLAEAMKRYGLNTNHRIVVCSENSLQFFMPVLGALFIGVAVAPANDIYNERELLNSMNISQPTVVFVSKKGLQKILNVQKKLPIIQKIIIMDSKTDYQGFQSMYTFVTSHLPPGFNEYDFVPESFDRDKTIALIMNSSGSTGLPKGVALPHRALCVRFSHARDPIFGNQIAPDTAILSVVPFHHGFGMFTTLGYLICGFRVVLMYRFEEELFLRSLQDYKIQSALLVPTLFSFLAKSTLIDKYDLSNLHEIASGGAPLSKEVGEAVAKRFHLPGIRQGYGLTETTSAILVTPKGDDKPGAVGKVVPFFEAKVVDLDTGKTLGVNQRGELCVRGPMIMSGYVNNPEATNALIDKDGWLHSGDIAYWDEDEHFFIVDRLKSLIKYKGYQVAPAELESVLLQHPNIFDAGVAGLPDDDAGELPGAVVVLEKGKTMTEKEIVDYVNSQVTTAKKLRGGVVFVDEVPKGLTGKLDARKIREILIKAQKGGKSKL
Protocol: as §1

[4] = molecular target: T3, Photinus pyralis luciferase PpyWT variant Ppy5, Ile457Val/Ala482Gly/His489Lys/Ala503Asn/Lys543Gln, SEQ ID NO: 10 (Photinus pyralis, UniProt P08659, A482G/A503N/H489K/I457V/K543Q); type: biochemical
T3 construct: pGEX-6P-2 GST fusion (tag cleaved), E. coli BL21
T3 sequence (P08659 whole entry I457V/A482G/H489K/A503N/K543Q, the tested form may be a part): as the sequence (P08659 whole entry T214A/A215L/I232A/F295L/I351V/E354K/I457V/A482G/H489K/A503N/K543Q, the tested form may be a part) above, with A214T, L215A, A232I, L295F, V351I, K354E counted along it
Protocol: as §1

[5] = molecular target: T4, Photinus pyralis luciferase variant Ppy RE-TS, SEQ ID NO: 24 (Photinus pyralis, UniProt P08659, A215L/E354K/F295L/I232A/S284T/T214A); type: biochemical
T4 construct: N-terminal GPLGS; pGEX-6P-2 GST fusion (tag cleaved), E. coli BL21
T4 sequence (P08659 whole entry T214A/A215L/I232A/S284T/F295L/E354K, the tested form may be a part): as the sequence (P08659 whole entry T214A/A215L/I232A/F295L/I351V/E354K/I457V/A482G/H489K/A503N/K543Q, the tested form may be a part) above, with S284T, V351I, V457I, G482A, K489H, N503A, Q543K counted along it
Protocol: as §1

[6] = molecular target: T5, Photinus pyralis luciferase PpyWT variant Ppy S284T (Ser284Thr) (Photinus pyralis, UniProt P08659, S284T); type: biochemical
T5 construct: pGEX-6P-2 GST fusion (tag cleaved), E. coli BL21
T5 sequence (P08659 whole entry S284T, the tested form may be a part): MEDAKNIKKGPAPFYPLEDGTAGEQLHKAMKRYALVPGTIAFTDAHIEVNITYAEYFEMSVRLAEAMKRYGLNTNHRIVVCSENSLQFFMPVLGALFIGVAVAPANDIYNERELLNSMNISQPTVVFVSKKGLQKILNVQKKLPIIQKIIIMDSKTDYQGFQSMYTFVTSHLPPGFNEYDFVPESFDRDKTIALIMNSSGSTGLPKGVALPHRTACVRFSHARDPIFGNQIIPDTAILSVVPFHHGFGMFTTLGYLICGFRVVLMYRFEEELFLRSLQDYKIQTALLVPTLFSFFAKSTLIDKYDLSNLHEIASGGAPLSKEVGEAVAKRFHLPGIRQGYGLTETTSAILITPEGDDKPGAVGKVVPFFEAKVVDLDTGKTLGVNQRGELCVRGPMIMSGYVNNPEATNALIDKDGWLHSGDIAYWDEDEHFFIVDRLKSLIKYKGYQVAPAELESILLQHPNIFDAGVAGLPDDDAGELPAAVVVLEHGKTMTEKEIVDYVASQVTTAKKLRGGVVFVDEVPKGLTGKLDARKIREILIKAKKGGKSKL
Protocol: as §1

[7] = molecular target: T6, Photinus pyralis luciferase PpyWT variant Ppy19, Ppy14 plus Leu530Ile/Lys534Val/Ile540Lys/Ala542Pro/Lys543Gln (Photinus pyralis, UniProt P08659, A450P/A482G/A503N/A509H/A542P/D475S/D476E/H489K/I457V/I540K/K511R/K534V/K543Q/L472V/L487M/L530I/T507V/T508N/V517R); type: biochemical
T6 construct: N-terminal GPLGS; pGEX-6P-2 GST fusion (tag cleaved), E. coli BL21
Protocol: as §1

[8] = read-out: Km Mg-ATP, pH 7.8, LH2 saturating

T1 sequence (P08659 whole entry T214A/A215L/I232A/V241I/G246A/F250S/F295L/E354K, the tested form may be a part): as the sequence (P08659 whole entry T214A/A215L/I232A/F295L/I351V/E354K/I457V/A482G/H489K/A503N/K543Q, the tested form may be a part) above, with V241I, G246A, F250S, V351I, V457I, G482A, K489H, N503A, Q543K counted along it

**Q.** Which kcat/Km ([1]; kcat divided by Mg-ATP Km) does the source give for `Nc1ncnc2c1ncn2[C@@H]1O[C@H](COP(=O)(O)OP(=O)(O)OP(=O)(O)O)[C@@H](O)[C@H]1O` [Mg-ATP] here?
**A.** 500 ± 100 M⁻¹ s⁻¹

**Q.** And the Km [1, 8]?
**A.** 163 ± 16 µM

**Q.** And the kcat/Km [2]?
**A.** 780 ± 110 M⁻¹ s⁻¹

**Q.** What about the kcat/Km ([3]; kcat divided by Mg-ATP Km) of the same compound?
**A.** 3160 ± 70 M⁻¹ s⁻¹

**Q.** What about the Km [3, 8] of the same compound?
**A.** 79 ± 5 µM

**Q.** And the kcat/Km ([4]; kcat divided by Mg-ATP Km)?
**A.** 4310 ± 120 M⁻¹ s⁻¹

**Q.** And the Km [4, 8]?
**A.** 72 ± 7 µM

**Q.** And the kcat/Km ([5]; kcat divided by Mg-ATP Km)?
**A.** 820 ± 90 M⁻¹ s⁻¹

**Q.** What about the Km [5, 8] of the same compound?
**A.** 68 ± 5 µM

**Q.** And the kcat/Km ([6]; kcat divided by Mg-ATP Km)?
**A.** 630 ± 140 M⁻¹ s⁻¹

**Q.** And the Km [6, 8]?
**A.** 79 ± 9 µM

**Q.** What about the kcat/Km ([7]; kcat divided by Mg-ATP Km) of the same compound?
**A.** 5990 ± 110 M⁻¹ s⁻¹

**Q.** And the Km [7, 8]?
**A.** 50 ± 5 µM
